# Measured values from ChEMBL document CHEMBL5303573, “Mapping human microbiome drug metabolism by gut bacteria and their genes” (Nature, 2019).
# Assays:
# [1] = The drug is tested on Escherichia coli strain: BW25113 for biotransformation. The drug concentrations were measured before and after a 12-h incubation by liquid-chromatography-coupled mass spectrometry (LC–MS); conditions: 2 µM
# [2] = The drug is tested on Enterococcus faecalis strain: V583 for biotransformation. The drug concentrations were measured before and after a 12-h incubation by liquid-chromatography-coupled mass spectrometry (LC–MS); conditions: 2 µM
# [3] = The drug is tested on Anaerococcus hydrogenalis strain: DSM7454 for biotransformation. The drug concentrations were measured before and after a 12-h incubation by liquid-chromatography-coupled mass spectrometry (LC–MS); conditions: 2 µM
# [4] = The drug is tested on Collinsella intestinalis strain: DSM13280 for biotransformation. The drug concentrations were measured before and after a 12-h incubation by liquid-chromatography-coupled mass spectrometry (LC–MS); conditions: 2 µM
# [5] = The drug is tested on Bacteroides sp. WH2 strain: WH2 for biotransformation. The drug concentrations were measured before and after a 12-h incubation by liquid-chromatography-coupled mass spectrometry (LC–MS); conditions: bacteroides sp. wh2, 12 h, 2 µM
# [6] = The drug is tested on Bacteroides uniformis strain: ATCC8492 for biotransformation. The drug concentrations were measured before and after a 12-h incubation by liquid-chromatography-coupled mass spectrometry (LC–MS); conditions: 2 µM
# [7] = limosilactobacillus reuteri cf48-3a, 12 h, 2 µM
# Description: The drug is tested on Lactobacillus reuteri CF48-3A strain: BEI HM-102 for biotransformation. The drug concentrations were measured before and after a 12-h incubation by liquid-chromatography-coupled mass spectrometry (LC–MS)
# [8] = bacteroides eggerthii, 12 h, 2 µM
# Description: The drug is tested on Bacteroides eggerthii strain: DSM20697 for biotransformation. The drug concentrations were measured before and after a 12-h incubation by liquid-chromatography-coupled mass spectrometry (LC–MS)
# [9] = The drug is tested on Clostridium symbiosum strain: ATCC14940 for biotransformation. The drug concentrations were measured before and after a 12-h incubation by liquid-chromatography-coupled mass spectrometry (LC–MS); conditions: 2 µM
# [10] = The drug is tested on Bacteroides finegoldii strain: DSM17565 for biotransformation. The drug concentrations were measured before and after a 12-h incubation by liquid-chromatography-coupled mass spectrometry (LC–MS); conditions: 2 µM
# [11] = The drug is tested on Subdoligranulum variabile strain: DSM15176 for biotransformation. The drug concentrations were measured before and after a 12-h incubation by liquid-chromatography-coupled mass spectrometry (LC–MS); conditions: 2 µM
# [12] = The drug is tested on Bacteroides fragilis strain: ATCC43859 for biotransformation. The drug concentrations were measured before and after a 12-h incubation by liquid-chromatography-coupled mass spectrometry (LC–MS); conditions: 2 µM
# [13] = bacteroides fragilis, 12 h, 2 µM
# Description: The drug is tested on Bacteroides fragilis strain: DS-208 for biotransformation. The drug concentrations were measured before and after a 12-h incubation by liquid-chromatography-coupled mass spectrometry (LC–MS)
# [14] = segatella copri, 12 h, 2 µM
# Description: The drug is tested on Prevotella copri strain: DSM18205 for biotransformation. The drug concentrations were measured before and after a 12-h incubation by liquid-chromatography-coupled mass spectrometry (LC–MS)
# [15] = bacteroides thetaiotaomicron, 12 h, 2 µM
# Description: The drug is tested on Bacteroides thetaiotaomicron strain: 7330 for biotransformation. The drug concentrations were measured before and after a 12-h incubation by liquid-chromatography-coupled mass spectrometry (LC–MS)
# [16] = The drug is tested on Parabacteroides merdae strain: ATCC43184 for biotransformation. The drug concentrations were measured before and after a 12-h incubation by liquid-chromatography-coupled mass spectrometry (LC–MS); conditions: 2 µM
# [17] = The drug is tested on Anaerotruncus colihominis strain: DSM17241 for biotransformation. The drug concentrations were measured before and after a 12-h incubation by liquid-chromatography-coupled mass spectrometry (LC–MS); conditions: 2 µM
# [18] = bacteroides thetaiotaomicron, 12 h, 2 µM; remark: listed apart in the source
# Description: The drug is tested on Bacteroides thetaiotaomicron strain: VPI-5482 for biotransformation. The drug concentrations were measured before and after a 12-h incubation by liquid-chromatography-coupled mass spectrometry (LC–MS)
# [19] = The drug is tested on Providencia rettgeri strain: DSM1131 for biotransformation. The drug concentrations were measured before and after a 12-h incubation by liquid-chromatography-coupled mass spectrometry (LC–MS); format: ADME; design: dose 2 uM, timepoint 0 vs 12 hours; conditions: 2 µM
# [20] = The drug is tested on Bacteroides caccae strain: ATCC43185 for biotransformation. The drug concentrations were measured before and after a 12-h incubation by liquid-chromatography-coupled mass spectrometry (LC–MS); conditions: 2 µM
Compound,Bacterial Biotransformation [1],Bacterial Biotransformation [2],Bacterial Biotransformation [3],Bacterial Biotransformation [4],Bacterial Biotransformation [5],Bacterial Biotransformation [6],Bacterial Biotransformation [7],Bacterial Biotransformation [8],Bacterial Biotransformation [9],Bacterial Biotransformation [10],Bacterial Biotransformation [11],Bacterial Biotransformation [12],Bacterial Biotransformation [13],Bacterial Biotransformation [14],Bacterial Biotransformation [15],Bacterial Biotransformation [16],Bacterial Biotransformation [17],Bacterial Biotransformation [18],Bacterial Biotransformation [19],Bacterial Biotransformation [20]
CC1=C(CC(=O)O)c2cc(F)ccc2/C1=C\c1ccc([S+](C)[O-])cc1 (stereo not drawn),Compound NOT metabolized,Compound NOT metabolized,Compound NOT metabolized,Compound NOT metabolized,Compound NOT metabolized,Compound NOT metabolized,Compound NOT metabolized,Compound NOT metabolized,Compound NOT metabolized,Compound NOT metabolized,Compound NOT metabolized,Compound NOT metabolized,Compound NOT metabolized,Compound NOT metabolized,Compound NOT metabolized,Compound NOT metabolized,Compound NOT metabolized,Compound NOT metabolized,–,–
COc1cc2nc(N(C)CCCNC(=O)C3CCCO3)nc(N)c2cc1OC (stereo not drawn) [ALFUZOSIN],Compound NOT metabolized,Compound NOT metabolized,Compound NOT metabolized,Compound NOT metabolized,Compound NOT metabolized,–,Compound NOT metabolized,Compound NOT metabolized,Compound NOT metabolized,Compound NOT metabolized,Compound NOT metabolized,Compound NOT metabolized,Compound NOT metabolized,Compound NOT metabolized,–,Compound NOT metabolized,Compound NOT metabolized,Compound NOT metabolized,Compound NOT metabolized,Compound NOT metabolized
NC(CO)(CO)CO.O=C(c1ccccc1)c1ccc2n1CCC2C(=O)O (stereo not drawn) [KETOROLAC TROMETHAMINE],Compound NOT metabolized,Compound NOT metabolized,Compound NOT metabolized,–,Compound NOT metabolized,Compound metabolized,Compound NOT metabolized,Compound NOT metabolized,Compound NOT metabolized,–,Compound metabolized,Compound metabolized,Compound metabolized,Compound metabolized,–,–,Compound NOT metabolized,Compound metabolized,Compound NOT metabolized,Compound NOT metabolized
CCCc1nn(C)c2c(=O)[nH]c(-c3cc(S(=O)(=O)N4CCN(C)CC4)ccc3OCC)nc12.O=C(O)CC(O)(CC(=O)O)C(=O)O [SILDENAFIL CITRATE],Compound NOT metabolized,Compound NOT metabolized,Compound metabolized,Compound NOT metabolized,Compound NOT metabolized,Compound NOT metabolized,Compound metabolized,Compound NOT metabolized,Compound NOT metabolized,Compound NOT metabolized,Compound NOT metabolized,Compound NOT metabolized,Compound NOT metabolized,Compound NOT metabolized,Compound NOT metabolized,Compound NOT metabolized,Compound NOT metabolized,Compound NOT metabolized,–,Compound NOT metabolized
CCCCCNC(=N)N/N=C/c1c[nH]c2ccc(OC)cc12.O=C(O)/C=C\C(=O)O [TEGASEROD MALEATE],Compound NOT metabolized,Compound NOT metabolized,Compound NOT metabolized,Compound NOT metabolized,Compound NOT metabolized,Compound NOT metabolized,Compound NOT metabolized,Compound NOT metabolized,Compound NOT metabolized,Compound NOT metabolized,Compound NOT metabolized,Compound NOT metabolized,Compound NOT metabolized,Compound NOT metabolized,Compound NOT metabolized,Compound NOT metabolized,Compound NOT metabolized,Compound NOT metabolized,–,Compound NOT metabolized
c1ccc2[nH]c(-c3cscn3)nc2c1 [THIABENDAZOLE],Compound NOT metabolized,Compound NOT metabolized,Compound NOT metabolized,Compound NOT metabolized,Compound NOT metabolized,Compound NOT metabolized,Compound NOT metabolized,Compound NOT metabolized,Compound NOT metabolized,Compound NOT metabolized,Compound NOT metabolized,Compound NOT metabolized,Compound NOT metabolized,Compound NOT metabolized,–,–,Compound NOT metabolized,Compound NOT metabolized,Compound NOT metabolized,Compound NOT metabolized
